Measured values taken from patent publication US10653688B2, “6-(6-membered heteroaryl and aryl)isoquinolin-3-yl carboxamides and preparation and use thereof” (Samumed, LLC, priority 2017, dated 2020).
Read-outs that look alike come from different tables or passages of the source.

Columns and labels:
[1] = system: Wnt activity (SW480 colon carcinoma cells stably expressing the Sp5-Luc reporter gene); experiment: Wnt activity screening assay (Sp5-Luc reporter gene assay); type: cell-based, human; settings: for EC50: 36 to 48 hours; for inhibition at 10 µM: read-out: percent inhibition at 10 μM (given for EC50 >10 μM), 10 μM
Text: The screening assay for Wnt activity is described as follows. Reporter cell lines can be generated by stably transducing cancer cell lines (e.g., colon cancer) or primary cells (e.g., IEC-6 intestinal cells) with a lentiviral construct that includes a Wnt-responsive promoter driving expression of the firefly luciferase gene.
SW480 colon carcinoma cells were transduced with a lentiviral vector expressing luciferase with a human Sp5 promoter consisting of a sequence of eight TCF/LEF binding sites. SW480 cells stably expressing the Sp5-Luc reporter gene and a hygromycin resistance gene were selected by treatment with 150 μg/mL of hygromycin for 7 days. These stably transduced SW480 cells were expanded in cell culture and used for all further screening activities. […] For Sp5-Luc reporter gene assays, the cells were plated at 4,000 cells/well in 384-well plates with a DMEM medium containing 1% fetal bovine serum, and 1% Penicillin-Streptomycin and incubated for 36 to 48 hours at 37° C. and 5% CO2. Following incubation, 15 μl of BriteLite Plus luminescence reagent (Perkin Elmer) was added to each well of the 384-well assay plates. The plates were placed on an orbital shaker for 2 min and then luminescence was quantified using the Envision (Perkin Elmer) plate reader. Readings were normalized to DMSO only treated cells, and normalized activities were utilized for EC50 calculations using the dose-response log (inhibitor) vs. response-variable slope (four parameters) nonlinear regression feature available in GraphPad Prism 5.0 (or Dotmatics).

recombinant GSK3β kinase = recombinant GSK3β kinase (Homo sapiens (Human), UniProt P49841); experiment: GSK3β kinase assay (Ser/Thr 09 peptide Z-lyte, FRET); type: biochemical;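 note: FRET read-out as coumarin over fluorescein emission ratio, compounds incubated one hour at room temperature, IC50 from dose-response curve fit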
recombinant GSK3β kinase, sequence (P49841 whole entry): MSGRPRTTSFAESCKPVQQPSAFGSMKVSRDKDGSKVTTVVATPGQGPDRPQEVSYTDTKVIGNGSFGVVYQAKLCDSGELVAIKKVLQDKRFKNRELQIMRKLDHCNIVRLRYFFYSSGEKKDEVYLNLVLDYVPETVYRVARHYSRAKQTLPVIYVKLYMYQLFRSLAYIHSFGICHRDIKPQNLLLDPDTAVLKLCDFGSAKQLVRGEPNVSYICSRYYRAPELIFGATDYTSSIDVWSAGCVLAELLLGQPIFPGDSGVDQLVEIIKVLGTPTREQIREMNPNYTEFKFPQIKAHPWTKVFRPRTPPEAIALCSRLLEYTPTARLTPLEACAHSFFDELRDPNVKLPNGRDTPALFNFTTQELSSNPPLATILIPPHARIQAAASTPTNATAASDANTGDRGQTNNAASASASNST

[2] = system: SW480 colon carcinoma cells; experiment: Cell viability assay (CellTiter-Glo); type: cell-based, human; settings: for EC50: four days, CellTiter-Glo; for inhibition at 10 µM: read-out: percent inhibition at 10 μM (given for EC50 >10 μM), 10 μM
Method: SW480 colon carcinoma cells were transduced with a lentiviral vector expressing luciferase with a human Sp5 promoter consisting of a sequence of eight TCF/LEF binding sites. SW480 cells stably expressing the Sp5-Luc reporter gene and a hygromycin resistance gene were selected by treatment with 150 μg/mL of hygromycin for 7 days. These stably transduced SW480 cells were expanded in cell culture and used for all further screening activities.
For the Cell Viability Assays, the cells were plated at 2,000 cells/well in 384-well plates with a DMEM medium containing 1% fetal bovine serum, and 1% Penicillin-Streptomycin and incubated for […] at 37° C. and 5% CO2. Eight replicates of DMSO-treated cells served as controls and cells treated with compound were performed in duplicate.
After incubation, 10 μL of CellTiter-Glo (Promega) was added to each well allowed to incubate for approximately 12 minutes. This reagent “results in cell lysis and generation of a luminescent signal proportional to the amount of ATP present. The amount of ATP is directly proportional to the number of cells present in culture, in agreement with previous reports. The CellTiter-Glo Assay generates a “glow-type” luminescent signal, produced by the luciferase reaction (Promega.com)”.

[3] = system: LL29 cells (primary human fibroblasts derived from IPF patients), α-smooth muscle actin; experiment: Inhibition of fibrotic process: TGF-β1-treated primary human fibroblasts, αSMA staining; type: cell-based; settings: for EC50: TGF-β1 20 ng/mL, 4 days, % cells positive for αSMA; for inhibition at 10 µM: read-out: percent inhibition at 10 μM (given for EC50 >10 μM), TGF-β1, αSMA, 10 μM;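 for all read-outs here: controls were TGF-β1-stimulated wells with DMSO vehicle as the positive reference and cells given DMSO alone as the negative reference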
[4] = system: IL-6 in human peripheral blood mononuclear cells (huPBMCs); experiment: IL-6 inhibition in LPS-stimulated human peripheral blood mononuclear cells (HTRF); type: cell-based; settings: for EC50: LPS 50 ng/mL, 22 hours, IL-6 HTRF; for inhibition at 10 µM: read-out: percent inhibition at 10 μM (given for EC50 >10 μM), LPS, IL-6, 10 μM
Method: Human Peripheral Blood Mononuclear Cells:
Fresh Normal PB MNC (Catalog # PB001, AllCells, Alameda, Calif.) were shipped overnight at 4° C. and resuspended in Roswell Park Memorial Institute (RPMI) 1640 Medium, with GlutaMAX Supplement (Catalog #61870127, ThermoFisher Scientific, Waltham, Mass.) supplemented with 1% Penicillin-Streptomycin (Catalog #15140163, ThermoFisher Scientific, Waltham, Mass.) and 1% fetal bovine serum (FBS) (Catalog #16140089, ThermoFisher Scientific, Waltham, Mass.) assay media.
Fresh normal human peripheral blood mononuclear cells (huPBMCs) were resuspended in 1% FBS-RPMI assay media with 1% Penicillin-Streptomycin 1% to a cell concentration of 1×10e6 cells/mL. […] 50 ng/mL of Lipopolysaccharides from Escherichia coli 0111:B4 (Catalog # L5293-2ML, Sigma-Aldrich, St. Louis, Mo.) was added after 2 hours and cells were incubated for another 22 hours at 37° C.-5% CO2. After 22 hour incubation, a mixture of anti-IL6 XL665 and anti-IL-6 Cryptate diluted in reconstitution buffer (Catalog #62IL6PEC, Cisbio Inc., Bedford, Mass.) was added to each well. Following incubation for 3 hours at room temperature, Homogeneous Time-Resolved Fluorescence (HTRF) was measured using the Envision (Perkin Elmer, Shelton, Conn.) at 665 nm and […]. The ratio of fluorescence at 665 nm to 620 nm was used as a readout for IL-6 quantification. All samples were processed in duplicate. Readings were normalized to DMSO treated cells and normalized activities were utilized for EC50 calculations. EC50 was determined using software generated by Dotmatics Limited (Windhill Bishops Stortford Herts, UK) using the Levenberg-Marquardt 4 parameter fitting procedure with finite different gradients.

[5] = target: recombinant DYRK1A kinase (Homo sapiens (Human), UniProt Q13627); experiment: DYRK1A kinase assay (Ser/Thr 18 peptide Z-lyte, FRET)
[6] = GSK3β kinase, head says EC50, method says IC50, ATP 46 μM
[7] = DYRK1A kinase, head says EC50, method says IC50, ATP 30 μM

EC50 ([1]; Homo sapiens) [nM] | EC50 (recombinant GSK3β kinase; [6]) [nM] | EC50 ([2]; Homo sapiens, 96 h) [nM] | EC50 ([4]; Homo sapiens, PBMC) [nM] | EC50 [5, 7] [nM] | EC50 (recombinant GSK3β kinase) [nM] | EC50 [5] [nM] | Compound | EC50 ([3]; Homo sapiens, Fibroblast, 96 h) [nM] | inhibition at 10 µM ([3]; Homo sapiens, Fibroblast) [%] | inhibition at 10 µM ([4]; Homo sapiens, PBMC) [%] | inhibition at 10 µM ([2]; Homo sapiens) [%] | inhibition at 10 µM ([1]; Homo sapiens) [%] | EC50 [1] [nM] | EC50 [2] [nM] | EC50 [3] [nM] | EC50 [4] [nM]
2050 | > 10000 | 1380 | 1330 | 354 |  |  | CC(C)Nc1cc(F)cc(-c2ccc3cnc(NC(=O)c4ccnc(N5CCN(C)CC5)c4)cc3c2)c1 [Compound 2, N-(6-(3-Fluoro-5-(isopropylamino)phenyl)isoquinolin-3-yl)-2-(4-methylpiperazin-1-yl)isonicotinamide] | 884 |  |  |  |  |  |  |  | 
5830 | > 10000 | 8380 | > 10000 | 96 |  |  | CN1CCN(c2cc(C(=O)Nc3cc4cc(-c5cnccn5)ccc4cn3)ccn2)CC1 [Compound 84, 2-(4-Methylpiperazin-1-yl)-N-(6-(pyrazin-2-yl)isoquinolin-3-yl)isonicotinamide] | > 10000 | 35.4 | 5.7 |  |  |  |  |  | 
1370 | > 10000 | 1170 | 3360 | 18 |  |  | CN1CCN(c2cc(C(=O)Nc3cc4cc(-c5cnc6[nH]ccc6c5)ccc4cn3)ccn2)CC1 [Compound 129, N-(6-(1H-Pyrrolo[2,3-b]pyridin-5-yl)isoquinolin-3-yl)-2-(4-methylpiperazin-1-yl)isonicotinamide] | 699 |  |  |  |  |  |  |  | 
> 10000 | > 10000 | > 10000 | > 10000 | 904 |  |  | CN1CCN(c2cc(C(=O)Nc3cc4cc(-c5ccc(N(C)C)nc5)ccc4cn3)ccn2)CC1 [Compound 49, N-(6-(6-(Dimethylamino)pyridin-3-yl)isoquinolin-3-yl)-2-(4-methylpiperazin-1-yl)isonicotinamide] | > 10000 | 33.5 | 0 | 37.1 |  |  |  |  | 
116 | 4320 | 326 | 1180 | 2 |  |  | O=C(Nc1cc2cc(-c3cncc(NC4CCNCC4)n3)ccc2cn1)c1ccc(F)cc1 [Compound 110, 4-fluoro-N-(6-(6-(piperidin-4-ylamino)pyrazin-2-yl)isoquinolin-3-yl)benzamide] | 345 |  |  |  |  |  |  |  | 
32 | > 10000 | 52 | 361 | 2 |  |  | CC(C)n1cc(C(=O)Nc2cc3cc(-c4cncc(NC5CCN(C)CC5)n4)ccc3cn2)cn1 [Compound 139, 1-Isopropyl-N-(6-(6-((1-methylpiperidin-4-yl)amino)pyrazin-2-yl)isoquinolin-3-yl)-1H-pyrazole-4-carboxamide] | 148 |  |  |  |  |  |  |  | 
> 10000 | > 10000 | > 10000 | > 10000 | 258 |  |  | CN1CCC(F)(C(=O)Nc2cc3cc(-c4cnccn4)ccc3cn2)CC1 [Compound 76, 4-Fluoro-1-methyl-N-(6-(pyrazin-2-yl)isoquinolin-3-yl)piperidine-4-carboxamide] | > 10000 | 13.1 | 1.6 | 17.5 | 15.7 |  |  |  | 
> 10000 | > 10000 | 1220 | > 10000 | 27 |  |  | CN1CCN(c2cc(C(=O)Nc3cc4cc(-c5cnc6cc[nH]c6n5)ccc4cn3)ccn2)CC1 [Compound 137, N-(6-(5H-Pyrrolo[2,3-b]pyrazin-3-yl)isoquinolin-3-yl)-2-(4-methylpiperazin-1-yl)isonicotinamide] | > 10000 | 34.2 | 3.9 |  | 19.8 |  |  |  | 
403 | > 10000 | 491 | 1100 | 3 |  |  | CC(C)Nc1cncc(-c2ccc3cnc(NC(=O)c4cccc(C5CCN(C)CC5)c4)cc3c2)c1 [Compound 42, N-(6-(5-(Isopropylamino)pyridin-3-yl)isoquinolin-3-yl)-3-(1-methylpiperidin-4-yl)benzamide] | 631 |  |  |  |  |  |  |  | 
> 10000 |  | 9460 | > 10000 |  | > 10000 | 18 | CN1CCN(c2cc(C(=O)Nc3cc4cc(-c5ccncc5)ccc4cn3)ccn2)CC1 [Compound 5, 2-(4-Methylpiperazin-1-yl)-N-(6-(pyridin-4-yl)isoquinolin-3-yl) isonicotinamide] | 2450 |  | 4.1 |  | 38.5 |  |  |  | 
> 10000 | > 10000 | 8020 | > 10000 | 158 |  |  | Cc1ncc(-c2ccc3cnc(NC(=O)c4ccnc(N5CCN(C)CC5)c4)cc3c2)cn1 [Compound 64, 2-(4-Methylpiperazin-1-yl)-N-(6-(2-methylpyrimidin-5-yl)isoquinolin-3-yl)isonicotinamide] | 2000 |  | 5.7 |  | 28.7 |  |  |  | 
132 | 6550 | 171 | 811 | 1 |  |  | CC(C)Nc1cncc(-c2ccc3cnc(NC(=O)c4cccc(C5CCN(C)CC5)c4)cc3c2)n1 [Compound 93, N-(6-(6-(Isopropylamino)pyrazin-2-yl)isoquinolin-3-yl)-3-(1-methylpiperidin-4-yl)benzamide] | 2240 |  |  |  |  |  |  |  | 
 |  |  |  |  |  |  | CC(C)CCN1CCC(C(=O)Nc2cc3cc(-c4cncc(NC(C)C)n4)ccc3cn2)CC1 [Compound 91, 1-Isopentyl-N-(6-(6-(isopropylamino)pyrazin-2-yl)isoquinolin-3-yl) piperidine-4-carboxamide] |  |  |  |  |  | 718 | 6890 | 19 | 446

Compound | EC50 ([1]; Homo sapiens) [nM] | EC50 (recombinant GSK3β kinase; [6]) [nM] | EC50 ([2]; Homo sapiens, 96 h) [nM] | EC50 ([4]; Homo sapiens, PBMC) [nM] | EC50 [5, 7] [nM] | EC50 (recombinant GSK3β kinase) [nM] | EC50 [5] [nM] | EC50 ([3]; Homo sapiens, Fibroblast, 96 h) [nM] | inhibition at 10 µM ([3]; Homo sapiens, Fibroblast) [%] | inhibition at 10 µM ([4]; Homo sapiens, PBMC) [%] | inhibition at 10 µM ([2]; Homo sapiens) [%] | inhibition at 10 µM ([1]; Homo sapiens) [%] | EC50 [1] [nM] | EC50 [2] [nM] | EC50 [3] [nM] | EC50 [4] [nM]
CC(C)Nc1cncc(-c2ccc3cnc(NC(=O)C4CCN(CCF)CC4)cc3c2)n1 [Compound 89, 1-(2-Fluoroethyl)-N-(6-(6-(isopropylamino)pyrazin-2-yl)isoquinolin-3-yl) piperidine-4-carboxamide] |  | 14 |  |  |  |  |  |  |  |  |  |  | 178 | 447 | 3910 | 390
